Data as given in US20080194970A1 (priority 2005, published 2008).

Tests used:
[1] = cited from earlier work
normal prostate cells = assay: topical labeling of prostate cells during surgery, imaged by fibered confocal fluorescence microscopy; assay type: in vivo; conditions: rat during a surgical procedure
Source text: The marker bar indicates 30 microns.
The imaging equipment selected for use in the present invention was a Cell-vizio (purchased from Mauna Kea Technologies), an ultra-high resolution molecular imaging system that employs fibered confocal fluorescence microscopy technology. This system was specifically designed to visualize cellular structures and quantify molecular events in vivo and is composed of an autonomous Laser Scanning Unit, a range of fibered objectives made of tens of thousands of optical fibers, and a dedicated image processing and analysis software package. The system is capable of capturing images at a rate of 12 frames per second in living anesthetized animals. These images have a lateral resolution of the order of a micron, an axial resolution of 15 to 20 μm, a field of view up to 600 μm×500 μm, and can be obtained at depths up to 80 μm. The fibered probes have diameters ranging from 300 μm to 1.8 mm, allowing for access to the narrow spaces posterior to the prostate where the cavernous nerves are located.

Substance | water solubility [1] | photostability ([1]; compared with fluorescein) | in vivo labeling of normal prostate cells (FIG. 3) (normal prostate cells)
Alexa Fluor 488 | water solubility, with no organic co-solvents required in labeling reactions | much greater photostability than fluorescein | –
acriflavine | – | – | normal prostate cells labeled
